Common to all, as to test: Kinase profiling screen (radioactive filter-binding assay)
Type in all cases: biochemical

For one assay, the target named is T1, EPH-B1 (Homo sapiens, UniProt P54762).
T1 sequence (P54762 18-984): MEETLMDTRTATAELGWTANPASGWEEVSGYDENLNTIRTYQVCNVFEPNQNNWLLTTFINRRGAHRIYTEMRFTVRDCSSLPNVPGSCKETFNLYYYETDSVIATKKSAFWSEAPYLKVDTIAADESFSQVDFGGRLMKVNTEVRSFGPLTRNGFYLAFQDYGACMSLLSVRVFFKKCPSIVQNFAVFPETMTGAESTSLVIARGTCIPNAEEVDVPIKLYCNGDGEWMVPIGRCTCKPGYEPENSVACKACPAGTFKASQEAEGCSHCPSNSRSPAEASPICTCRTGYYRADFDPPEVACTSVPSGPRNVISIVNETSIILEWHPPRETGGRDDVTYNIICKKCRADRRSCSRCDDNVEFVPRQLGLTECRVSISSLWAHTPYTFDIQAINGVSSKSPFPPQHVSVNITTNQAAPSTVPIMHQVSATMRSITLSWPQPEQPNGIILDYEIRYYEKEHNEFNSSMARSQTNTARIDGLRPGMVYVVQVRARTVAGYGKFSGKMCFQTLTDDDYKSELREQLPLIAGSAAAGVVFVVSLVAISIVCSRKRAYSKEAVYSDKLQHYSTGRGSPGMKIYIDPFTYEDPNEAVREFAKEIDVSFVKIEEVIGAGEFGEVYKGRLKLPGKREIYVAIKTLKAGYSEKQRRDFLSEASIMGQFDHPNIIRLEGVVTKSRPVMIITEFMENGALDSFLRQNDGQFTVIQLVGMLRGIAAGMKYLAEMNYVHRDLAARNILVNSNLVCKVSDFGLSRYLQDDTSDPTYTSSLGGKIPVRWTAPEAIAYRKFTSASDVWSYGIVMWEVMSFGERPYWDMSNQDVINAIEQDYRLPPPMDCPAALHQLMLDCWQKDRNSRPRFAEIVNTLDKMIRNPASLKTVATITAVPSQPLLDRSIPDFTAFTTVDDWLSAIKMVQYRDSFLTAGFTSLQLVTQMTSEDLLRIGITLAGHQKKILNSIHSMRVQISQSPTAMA
Conditions: 100 μM compound, 20 μM ATP; read-out: Kinase activity, % of activity in the absence of inhibitor. The procedure:
(§1) Profiling of 117 protein kinases with CoA, dpCoA and ADP was carried out at the International Centre for Protein Kinase Profiling at the University of Dundee. Each compound was tested in vitro, in duplicate, at 100 μM final concentration using recombinant kinases, model substrates and optimal concentrations of ATP. Bacterially expressed full-length His-Aurora A was used to determine the IC50 value for CoA (in the presence or absence of DTT), dpCoA, ADP and desulfo-CoA. The assay was performed in the presence of 5 μM competing ATP. To examine whether the inhibitory effect of CoA on Aurora A is modulated by TPX2, IC50 values for CoA were also generated in the presence and absence of 1 μg TPX2 (residues 1–43) fragment.

Another assay addresses T2, IKKε (Homo sapiens, UniProt Q14164).
T2 sequence (Q14164 1-716): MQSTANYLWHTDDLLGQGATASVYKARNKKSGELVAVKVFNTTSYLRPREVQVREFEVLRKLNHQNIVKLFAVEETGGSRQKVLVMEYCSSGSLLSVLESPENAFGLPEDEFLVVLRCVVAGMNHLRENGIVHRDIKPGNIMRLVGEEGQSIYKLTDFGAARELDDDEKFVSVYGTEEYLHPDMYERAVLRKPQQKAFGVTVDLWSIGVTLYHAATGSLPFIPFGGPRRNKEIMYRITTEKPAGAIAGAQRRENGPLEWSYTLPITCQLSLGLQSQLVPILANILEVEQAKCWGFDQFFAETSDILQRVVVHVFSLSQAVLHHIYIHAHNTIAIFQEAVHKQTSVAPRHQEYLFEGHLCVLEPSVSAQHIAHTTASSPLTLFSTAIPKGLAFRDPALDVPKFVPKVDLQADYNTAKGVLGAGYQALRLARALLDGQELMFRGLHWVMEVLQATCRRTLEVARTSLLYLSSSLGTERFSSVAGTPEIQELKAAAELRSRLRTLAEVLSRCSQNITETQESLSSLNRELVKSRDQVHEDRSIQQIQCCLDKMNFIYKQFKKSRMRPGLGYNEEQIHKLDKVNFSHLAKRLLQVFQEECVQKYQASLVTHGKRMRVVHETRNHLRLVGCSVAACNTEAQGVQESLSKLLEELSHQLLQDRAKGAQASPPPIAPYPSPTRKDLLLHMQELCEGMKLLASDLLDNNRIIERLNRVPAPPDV
Conditions: 100 μM compound, 50 μM ATP; read-out: Kinase activity, % of activity in the absence of inhibitor. The procedure: as §1

The target of the next assay is MAPKAP-K2 (Homo sapiens, UniProt P49137). The note with it: 100 μM compound, 20 μM ATP; read-out: Kinase activity, % of activity in the absence of inhibitor. The procedure: as §1
The target in the next assay is PAK2 (Homo sapiens, UniProt Q13177). Conditions: 100 μM compound, 20 μM ATP; read-out: Kinase activity, % of activity in the absence of inhibitor. The procedure: as §1
Another assay concerns the target PIM1 (Homo sapiens, UniProt P11309). Conditions: 100 μM compound, 20 μM ATP; read-out: Kinase activity, % of activity in the absence of inhibitor. The procedure: as §1
The target in a further assay is T3, TBK1 (Homo sapiens, UniProt Q9UHD2).
T3 sequence (Q9UHD2 1-729): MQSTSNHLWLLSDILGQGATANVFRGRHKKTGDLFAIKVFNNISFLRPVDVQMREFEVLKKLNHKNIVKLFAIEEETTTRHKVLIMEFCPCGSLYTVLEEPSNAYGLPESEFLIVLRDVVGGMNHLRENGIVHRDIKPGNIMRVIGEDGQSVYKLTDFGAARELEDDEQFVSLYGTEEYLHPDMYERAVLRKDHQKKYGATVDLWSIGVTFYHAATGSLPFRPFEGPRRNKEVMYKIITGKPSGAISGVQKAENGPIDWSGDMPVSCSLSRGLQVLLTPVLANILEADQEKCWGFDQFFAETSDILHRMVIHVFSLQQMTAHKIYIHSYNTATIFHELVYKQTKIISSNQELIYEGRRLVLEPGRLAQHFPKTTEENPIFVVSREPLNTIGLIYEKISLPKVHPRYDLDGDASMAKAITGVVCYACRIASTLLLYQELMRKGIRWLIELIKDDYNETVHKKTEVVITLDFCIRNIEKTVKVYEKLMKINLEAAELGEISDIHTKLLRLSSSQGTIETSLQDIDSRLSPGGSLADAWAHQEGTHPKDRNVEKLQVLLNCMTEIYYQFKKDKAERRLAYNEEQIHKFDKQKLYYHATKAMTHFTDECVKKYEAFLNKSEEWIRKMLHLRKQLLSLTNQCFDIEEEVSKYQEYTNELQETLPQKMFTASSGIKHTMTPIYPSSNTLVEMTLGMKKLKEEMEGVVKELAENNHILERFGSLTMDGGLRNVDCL
Conditions: 100 μM compound, 50 μM ATP; read-out: Kinase activity, % of activity in the absence of inhibitor. The procedure: as §1

For another assay, the target named is p38α MAPK (Homo sapiens, UniProt Q16539). The note with it: 100 μM compound, 50 μM ATP; read-out: Kinase activity, % of activity in the absence of inhibitor. The procedure:
as §1

Data on three compounds can be found in paper PMC6812009, “Covalent Aurora A regulation by the metabolic integrator coenzyme A” (Redox Biology, 2019).

Chain of MAPKAP-K2 (P49137 whole entry): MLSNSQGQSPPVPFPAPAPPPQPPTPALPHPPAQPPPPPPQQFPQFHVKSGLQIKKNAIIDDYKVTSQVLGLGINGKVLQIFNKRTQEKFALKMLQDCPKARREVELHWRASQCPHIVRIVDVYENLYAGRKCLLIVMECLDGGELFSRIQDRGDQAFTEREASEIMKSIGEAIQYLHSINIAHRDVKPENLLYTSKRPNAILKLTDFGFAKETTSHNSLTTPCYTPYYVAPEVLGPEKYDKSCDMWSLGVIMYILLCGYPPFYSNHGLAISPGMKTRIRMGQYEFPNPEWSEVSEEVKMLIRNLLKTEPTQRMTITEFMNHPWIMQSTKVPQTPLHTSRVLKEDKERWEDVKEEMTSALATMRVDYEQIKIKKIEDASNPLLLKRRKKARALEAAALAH
Chain of PIM1 (P11309 whole entry): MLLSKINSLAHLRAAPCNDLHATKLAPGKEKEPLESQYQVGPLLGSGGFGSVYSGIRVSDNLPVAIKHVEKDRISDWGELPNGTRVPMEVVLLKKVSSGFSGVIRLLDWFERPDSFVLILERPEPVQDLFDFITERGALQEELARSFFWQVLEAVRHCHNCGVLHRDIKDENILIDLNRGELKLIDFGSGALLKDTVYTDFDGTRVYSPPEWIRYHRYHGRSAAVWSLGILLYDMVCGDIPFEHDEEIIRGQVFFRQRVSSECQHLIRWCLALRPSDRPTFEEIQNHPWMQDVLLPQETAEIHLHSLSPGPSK
Chain of p38α MAPK (Q16539 whole entry): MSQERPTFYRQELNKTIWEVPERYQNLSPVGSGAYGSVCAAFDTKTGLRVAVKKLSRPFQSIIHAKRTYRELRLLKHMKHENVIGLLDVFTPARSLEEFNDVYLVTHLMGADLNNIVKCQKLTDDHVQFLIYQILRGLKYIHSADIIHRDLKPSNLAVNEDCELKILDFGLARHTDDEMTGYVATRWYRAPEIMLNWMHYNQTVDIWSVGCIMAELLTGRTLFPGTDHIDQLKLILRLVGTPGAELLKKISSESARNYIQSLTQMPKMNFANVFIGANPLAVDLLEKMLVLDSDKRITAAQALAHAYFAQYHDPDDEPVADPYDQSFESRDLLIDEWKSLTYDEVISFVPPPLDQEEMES
Chain of PAK2 (Q13177 whole entry): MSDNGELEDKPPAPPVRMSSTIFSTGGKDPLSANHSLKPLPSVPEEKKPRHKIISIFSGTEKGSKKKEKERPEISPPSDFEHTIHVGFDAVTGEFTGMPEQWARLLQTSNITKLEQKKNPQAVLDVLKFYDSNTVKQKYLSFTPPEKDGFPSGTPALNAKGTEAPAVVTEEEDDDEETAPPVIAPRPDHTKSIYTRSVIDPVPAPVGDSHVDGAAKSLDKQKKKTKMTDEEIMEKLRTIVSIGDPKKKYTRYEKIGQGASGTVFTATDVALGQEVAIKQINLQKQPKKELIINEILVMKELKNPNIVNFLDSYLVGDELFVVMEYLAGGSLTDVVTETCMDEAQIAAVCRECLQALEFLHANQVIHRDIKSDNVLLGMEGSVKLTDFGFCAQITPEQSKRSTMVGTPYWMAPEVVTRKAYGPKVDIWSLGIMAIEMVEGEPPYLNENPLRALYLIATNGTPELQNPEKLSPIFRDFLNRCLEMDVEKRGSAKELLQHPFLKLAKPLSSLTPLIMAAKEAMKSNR

Take `Nc1ncnc2c1ncn2C1OC(COP(=O)(O)OP(=O)(O)O)C(O)C1O` (stereo not drawn) [ADP]: the activity at 100 µM on EPH-B1 is 11.6%; on IKKε, 73.8%; at MAPKAP-K2, 53%; on PAK2 it was 90.3%; at PIM1 it was 46.1%; at TBK1 it was 95.1%. In addition, the activity at 100 µM on p38α MAPK was 60.3%.

Take `CC(C)(COP(=O)(O)OP(=O)(O)OC[C@H]1O[C@@H](n2cnc3c(N)ncnc32)[C@H](O)[C@@H]1OP(=O)(O)O)[C@@H](O)C(=O)NCCC(=O)NCCS` [CoA, Coenzyme A]: the activity at 100 µM on EPH-B1 was 117%; at IKKε it was 125%; at MAPKAP-K2, 93.1%; on PAK2 it was 88.8%; on PIM1 it was 103%; on TBK1, 106%. Moreover, the activity at 100 µM at p38α MAPK was 112%.

In the case of `CC(C)(COP(=O)(O)OP(=O)(O)OCC1OC(n2cnc3c(N)ncnc32)C(O)C1O)C(O)C(=O)NCCC(=O)NCCS` (stereo not drawn) [dpCoA, dephospho-CoA], the activity at 100 µM was 80% at EPH-B1; 91.4% at IKKε; 81.7% at MAPKAP-K2; 112% on PAK2; 97.7% at PIM1; 110% at TBK1. On p38α MAPK, the activity at 100 µM was 87.7%.
